This is an account of results in ChEMBL document CHEMBL1139815, “Synthesis and characterization of a pegylated derivative of 3-(1,2,3,6-tetrahydro-pyridin-4yl)-1H-indole (IDT199): a high affinity SERT ligand for conjugation to quantum dots” (Bioorg Med Chem Lett, 2007).

The assay deals with Sodium-dependent serotonin transporter (Homo sapiens, UniProt P31645). The experiment in a line: Displacement of [3H]serotonin from human SERT expressed in HeLa cells. The assay is classed as cell-based. For orientation: Displacement assays read how much labelled ligand stays bound in the presence of the test substance.

pIC50: −log10 of the molar value.

By pIC50 is commonly meant the negative decadic logarithm of the IC50, by convention in mol/L. A lower pIC50 goes with a high IC50.

Chain of Sodium-dependent serotonin transporter (P31645 whole entry): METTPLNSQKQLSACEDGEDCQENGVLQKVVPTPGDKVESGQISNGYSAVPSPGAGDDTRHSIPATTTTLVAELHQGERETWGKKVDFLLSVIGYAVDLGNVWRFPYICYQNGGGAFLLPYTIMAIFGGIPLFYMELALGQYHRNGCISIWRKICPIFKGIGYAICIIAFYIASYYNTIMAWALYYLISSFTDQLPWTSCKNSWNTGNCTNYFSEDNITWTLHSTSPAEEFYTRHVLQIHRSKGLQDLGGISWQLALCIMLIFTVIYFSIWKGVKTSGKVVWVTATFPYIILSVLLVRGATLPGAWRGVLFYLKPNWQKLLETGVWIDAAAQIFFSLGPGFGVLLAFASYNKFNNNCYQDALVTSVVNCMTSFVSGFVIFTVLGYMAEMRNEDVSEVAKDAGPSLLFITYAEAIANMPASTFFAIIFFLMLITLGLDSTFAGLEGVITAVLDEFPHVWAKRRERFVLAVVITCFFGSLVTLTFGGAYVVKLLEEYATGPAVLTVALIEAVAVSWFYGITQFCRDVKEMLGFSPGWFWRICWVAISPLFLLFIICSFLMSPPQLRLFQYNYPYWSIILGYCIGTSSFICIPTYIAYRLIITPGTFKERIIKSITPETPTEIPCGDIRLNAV

In turn, `NCCCCCCCCCCCN1CCC(c2c[nH]c3ccccc23)CC1` had a pIC50 of 7.60.
